Experimental data taken from PubChem BioAssay (NCI).
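96-well plates; 48 h exposure; 5 concentrations. Endpoints by linear interpolation between flanking doses. Not reached: highest tested concentration assigned. Abbreviation: GI50, concentration required for 50% inhibition of growth. TGI: total growth inhibition.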

Columns and labels:
Assay in all cases: NCI-60 cell line screen, 48 h
[1] = tested on: KM20L2 colon
[2] = tested on: DLD-1 colon
[3] = tested on: HOP-18 NSCLC
[4] = tested on: RXF-631 renal
[5] = tested on: LXFL 529 NSCLC
[6] = tested on: M19-MEL melanoma
[7] = tested on: DMS 114 small cell lung
[8] = tested on: MDA-N
[9] = tested on: SNB-78 CNS

Row | Compound | TGI [1] [µM] | TGI [2] [µM] | TGI [3] [µM] | TGI [4] [µM] | TGI [5] [µM] | TGI [6] [µM] | TGI [7] [µM] | TGI [8] [µM] | GI50 [8] [µM] | TGI [9] [µM] | GI50 [9] [µM] | GI50 [1] [µM] | GI50 [2] [µM] | GI50 [5] [µM]
1 | COC(=O)CC(=O)C[P+](c1ccccc1)(c1ccccc1)c1ccccc1 | > 218 | > 218 | > 218 | > 218 | > 218 | > 218 | > 218 |  |  |  |  |  |  | 
2 | CNC(=O)OCc1c(COC(=O)NC)c(-c2ccc(Cl)c(Cl)c2)n2c1SCC2 |  |  |  |  |  |  |  | 42.7 |  |  |  |  |  | 
3 | COC(=O)C1=C(C(=O)OC)C2C=CC1C1C(Cl)=C(Cl)C21 (stereo not given) | > 100 | > 100 | > 100 | > 100 | > 100 | > 100 | > 100 |  |  |  |  |  |  | 
4 | CCN(CC)c1c(C(=O)/C=C/c2ccccc2)c(-c2ccccc2)nn(C)c1=O | > 100 | > 100 |  |  | > 100 | > 100 | > 100 |  |  |  |  |  |  | 
5 | CC1OC(O[C@H]2C[C@@H](O)[C@]3(CO)[C@H]4[C@H](O)C[C@]5(C)[C@@H](C6=CC(=O)OC6)CC[C@]5(O)[C@@H]4CC[C@]3(O)C2)C(O)C(O)C1O (stereo not given in full) |  |  |  |  |  |  |  | 33.7 | 18.8 |  |  |  |  | 
6 | COc1ccc(OC)c(NC(=O)C(=O)C(C(C)=O)c2nc3ccc(Cl)cc3[nH]c2=O)c1 (stereo not given) | > 50 | > 50 | > 50 | > 50 | > 50 | > 50 | > 50 |  |  | > 50 |  |  |  | 
7 | CCCCCCCCCCCCCC(=O)OC1CC(=O)OC1CO (stereo not given) | > 100 | > 100 | 92.3 |  | > 100 | > 100 | > 100 |  |  | > 100 |  |  |  | 
8 | COC(=O)C(=O)C(C(=O)C=C(C)C)C(=O)C(=O)Nc1cc(C(F)(F)F)ccc1Cl (stereo not given) | > 100 | > 100 | > 100 | > 100 | > 100 |  | > 100 |  |  | > 100 |  |  |  | 
9 | COc1cc(C2c3cc4c(cc3C(NCC(O)CO)C3COC(=O)[C@H]23)OCO4)cc(OC)c1OC (stereo not given in full) |  | > 100 | > 100 |  | > 100 | > 100 | 0.245 |  |  | > 100 |  |  |  | 
10 | O=C1C=CC(=Nc2ccc3c(c2)C(Br)c2ccccc2-3)O1 (stereo not given) |  | > 100 |  |  | > 100 | > 100 | > 100 |  |  | > 100 |  |  |  | 
11 | Cc1ccc(S(=O)(=O)C(CC(=O)N2CCCC2)C(=O)c2ccccc2)cc1 (stereo not given) |  | > 100 | > 100 | > 100 | > 100 |  | > 100 |  |  | > 100 |  |  |  | 
12 | CC1=C(C(=O)Nc2ccc([N+](=O)[O-])cc2)C(c2ccc(N(C)C)cc2)C(C(=O)Nc2ccc([N+](=O)[O-])cc2)=C(C)N1 | 43.4 | 30 |  |  | 71.4 | 33.2 |  |  |  | > 100 |  |  |  | 
13 | Cc1cc(N(CCOS(C)(=O)=O)CCOS(C)(=O)=O)ccc1C=Nc1ccc(-c2nc(Cc3ccccc3)sc2C)cc1 | 21.2 | 31.9 | 23.4 |  | > 50.3 | 24.3 | 27.7 | 29 |  | 81.2 |  |  |  | 
14 | COC(=O)C[C@H]1CCC2(OCCO2)[C@]1(C)C(=O)OC |  |  |  | > 100 | > 100 | > 100 | > 100 |  |  | > 100 |  |  |  | 
15 | N#CC1(Cc2ccc(N)cc2)c2ccccc2C=CN1C(=O)c1ccccc1 (stereo not given) | > 100 | > 100 | > 100 |  | > 100 | > 100 | > 100 |  |  | > 100 |  |  |  | 
16 | COc1ccc2cc1Oc1ccc(cc1)CC1c3cc(c(OC)cc3CCN1C)Oc1c3c(cc4c1C(C2)N(C)CC4)OCO3 (stereo not given) | 6.18 | 31.5 |  | 36 | 25.6 | 12.9 | 17.5 |  |  | 30.7 |  |  |  | 
17 | CCCCCCCCCCCC(=O)CC(=O)c1c(O)cccc1O | 43.8 | 32.4 | 36.7 |  | 32.2 | 34.2 | 34.6 |  |  | 41 |  |  |  | 
18 | CC(C)CC(=O)[O-].CC(C)CC(=O)[O-].N.N.N.N.[Co+3].[O-][Cl+3]([O-])([O-])[O-] | > 100 | > 100 |  |  | > 100 |  |  |  |  | > 100 | > 100 | > 100 | > 100 | > 100
19 | CCCCCCCCCC[C@@H](O)[C@@H]1CC[C@H]([C@H]2CC[C@@H]([C@@H](O)CCCCCCCCCC[C@H]3CC(CC(C)=O)C(=O)O3)O2)O1 (stereo not given in full) | 52.7 | 83 |  | 38.3 | 19.5 | 46.5 | 19 |  |  | 37.2 |  |  |  | 
